Columns and labels:
[1] = tested on: C4-2B luciferase expressing cells; experiment: Intratibial C4-2B bone metastatic CRPC model with human γδ T-cells, zoledronate or vehicle; type: in vivo, NSG mice; details: for Percentage of CD3Vd2 positive cells in flushed tibias, higher than control: zoledronate 0.1 mg/Kg
Excerpt: FIGS. 7A to 7D show C4-2B cells inoculated into NSG mice and treated with either zoledronate (ZOL) or vehicle control. After establishment and randomization mice ([…]) were inoculated with 3.5×10^6 […]. Subsets of mice were removed from the study at 1, 3 and 5 days late. […] Number illustrate the percentage of γδ T-cells in the total marrow analysis over time. […] FIG. 7C is a graph showing RLUs quantitated over time and the growth rates calculated for each group. Asterisk indicates statistical significance. Mice at the final time point were assessed for γδ T-cell localization (CD3), apoptosis (cleaved caspase-3; CC3) and proliferation (phospho histone H3; pHH3). […] Arrows indicate positivity. DAPI was used as a nuclear counterstain.
Next, the anti-tumor activity of γδ T-cells on established bone metastatic CRPC lesions in vivo was assessed. NSG (NOD.Cg-Prkdcscid112rgtm1Wjl/SzJ) immunocompromised mice were intratibially inoculated with C4-2B luciferase expressing cells (1×10^5) and once established were randomized in zoledronate (0.1 mg/Kg) or vehicle (saline) groups (n=25 per group) based on relative luminescence unit (RLU) measurement. One week later, mice received tail vein injections of human γδ T-cells (3.5×10^6/mouse).
Groups of mice (n=5) were removed from the study 1, 3, 5 days subsequent to injection with tibias being flushed and assessed for human CD3 Vd2 content by flow cytometry. […] Bioluminescence was used as a correlate of tumor growth.

γδ (CAR)-T cells = experiment: IL-2 secretion by γδ (CAR)-T cells; type: cell-based
[2] = tested on: PSCA-expressing C42B prostate cancer cells; experiment: IFNγ ELISA of co-culture supernatants; type: cell-based, human
Procedure: IFNγ ELISA of co-culture supernatants of C4-2B-PSCA cells exposed to media (negative control) or the indicated T cells, in presence of increasing concentrations of Zol (0, 0.4 and 0.8 μM).
Four variants of the anti-PSCA CAR were generated containing either CD27 (CD27z), CD28 (CD28z), or 4-1BB (BBz) costimulation. The fourth variant contains a CD27 costimulatory domain where the TRAF-binding site has been replaced with an inert flexible linker (G4S). γδ CAR-T cells expressing either CAR variant (or GFP as controls) were generated, and cocultured with PSCA-expressing C42B prostate cancer cells, in presence or absence of zoledronate, at the indicated doses. The presence of interferon-γ in the supernatants (measured by ELISA) was used as a marker of T cell activation. CAR-expressing T cells (but not untransduced or GFP-transduced cells) reacted to target cells by producing interferon-γ (solid bars).
γδ CAR-T cells recognize tumor cells via CAR and via TCR. The CAR- and TCR-mediated mechanisms of tumor cell recognition were tested using the CRPC C4-2BPSCA cell line. Cancer cells were treated with either untransduced (UT) control or CAR-expressing γδ T-cells, in the presence or absence of ZOL (0.4 μM). In presence of ZOL, control γδ T cells induced a cytotoxic effect at approx. 18 h, reflecting recognition of C4-2B-PSCA cells via TCR. […] The ability to induce a potent cytolytic effect with lesser cytokine production that can be modulated by ZOL is important since it may allow γδ (CAR−)T-cells to mediate more precise tumor killing, reducing the risk for complications related to massive cytokine release.

C4-2B-PSCA cells = experiment: RTCA cytotoxicity assay of γδ T-cells; type: cell-based, human
Procedure: Summary of RTCA analysis of C4-2B-PSCA, or control PSCA null C4-2B, cells co-cultured with γδ CAR-T cells, or untransduced controls (UT). FIGS. […] show tumor cells without ZOL pretreatment. FIGS. 6C and 6D show tumor cells with 2 h ZOL pretreatment. FIGS. 6A and 6C show tumor cell viability 2 h post co-culture. FIGS. 6B and 6D show 30 h post co-culture.
The CAR- and TCR-mediated mechanism of tumor cell recognition were tested using the CRPC C4-2B cell line.

T47D breast cancer cells = experiment: IPP production in response to zoledronate, LC-MS/MS of cell extracts; type: cell-based
Procedure: (§1) Following treatment of tumor cells with ZOL, IPP was measured in cell extracts by tandem LC-MS/MS, using AppCp as an internal standard. […] ZOL treatment was administered for 1 h or 18 h, at 2 different doses: 10 μM or 25 μM.
(§2) In order to verify that zoledronate effectively induces IPP accumulation in a model system, C4-2B-PSCA-Luc human CRPC prostate cancer cells were treated with 10 μM or 25 μM of zoledronate, for 1 h or 18 h. Intracellular IPP levels were measured using a semi-quantitative mass spectrometry assay. T47D breast cancer cells were used as positive control, and Panc02.03 pancreatic cancer cells were used as negative controls.

[3] = tested on: C4-2B-PSCA-Luc human CRPC prostate cancer cells; experiment: as above; type: cell-based; details: C4-2B-PSCA-Luc cells, 10 μM or 25 μM, 1 h or 18 h
Procedure: as §1, §2

[4] = tested on: Panc02.03 pancreatic cancer cells; experiment: as above; type: cell-based; details: Panc02.03 cells, prolonged treatment with high doses
Procedure: as §1, §2

[5] = study endpoint, compared to control
[6] = coculture with PSCA-expressing C42B cells

## O=P(O)(O)C(O)(Cn1ccnc1)P(=O)(O)O [zoledronate]
[1]; Day 1 after γδ T-cell injection
  Percentage of CD3Vd2 positive cells in flushed tibias, higher than control: > 61%
[1]; Day 3 after γδ T-cell injection
  Percentage of CD3Vd2 positive cells in flushed tibias, higher than control: > 32%
[1]; Day 5 after γδ T-cell injection
  Percentage of CD3Vd2 positive cells in flushed tibias, higher than control: > 57%
[1]; [5]
  Apoptotic (cleaved caspase-3) cancer cells, tibia histology: increased apoptotic
  Proliferative (phospo-Histone H3) cancer cells, tibia histology: decreased proliferative
[1]; zoledronate group compared to controls, all with γδ T-cells
  C4-2B growth rate (bioluminescence): significantly slower
γδ (CAR)-T cells
  Effect of zoledronate on IL-2 secretion by γδ (CAR)-T cells: increases IL-2 secretion
[2]; coculture of γδ (CAR−)T-cells with C4-2BPSCA cells, Zol 0, 0.4 and 0.8 μM
  Effect of ZOL on IFNγ secretion: enhanced IFNγ secretion
[2]; [6]
  Effect of zoledronate on interferon production by γδ CAR-T cells: enhanced interferon production
  Effect of zoledronate on target recognition by GFP-transduced and untransduced γδ T cells: induced target recognition
[2]; αβ T cells with C4-2BPSCA cells
  Effect of ZOL on IFNγ secretion: not observed
C4-2B-PSCA cells
  Time at which control (untransduced) γδ T cells induced a cytotoxic effect: approx. 18 h
C4-2B-PSCA cells; ZOL 0.4 μM
  Effect of ZOL on cytolytic activity of γδ CAR-T: greatly enhanced
T47D breast cancer cells; 1 h, high-dose zoledronate (doses 10 μM or 25 μM)
  Intracellular IPP levels: detectable over background
T47D breast cancer cells; 18 h, both doses (10 μM or 25 μM)
  Intracellular IPP levels: detectable over background
[3]
  Intracellular IPP levels: produced high levels of IPP
[4]
  Intracellular IPP levels: did not produce IPP
